{"source": "ChEMBL document CHEMBL3885881", "about": "“DrugMatrix”", "species_on_record": "Rattus norvegicus", "assay": "DrugMatrix - Regimen: Daily Repeat", "format": "toxicity, organism-based, Sprague-Dawley", "set-up": "regimen Daily Repeat, gender Male, age 6-8 weeks", "details": "in vivo, po, route oral GAVAGE, […]; for TOTAL PROTEIN / URIC ACID / ALANINE AMINOTRANSFERASE / ALBUMIN / ALKALINE PHOSPHATASE / ASPARTATE AMINOTRANSFERASE / BLOOD UREA NITROGEN / CARBON DIOXIDE / CHOLESTEROL / CREATINE PHOSPHOKINASE / CREATININE / GLUCOSE / LACTATE DEHYDROGENASE / LIPASE / TOTAL BILIRUBIN: tissue Plasma; for ABSOLUTE BASOPHIL / ABSOLUTE EOSINOPHIL / ABSOLUTE LYMPHOCYTE / ABSOLUTE MONOCYTE / ABSOLUTE SEGMENTED NEUTROPHIL / BASOPHIL / EOSINOPHIL / ERYTHROCYTE COUNT / HEMATOCRIT / HEMOGLOBIN / LEUKOCYTE COUNT / LYMPHOCYTE / MEAN CORPUSCULAR HEMOGLOBIN / MEAN CORPUSCULAR HEMOGLOBIN CONCENTRATION / MEAN CORPUSCULAR VOLUME / MONOCYTE / NEUTROPHIL / NUCLEATED RED BLOOD CELLS / PLATELET COUNT: tissue Blood", "key": {"[1]": {"details": "32 mg/kg, 120 h, dose level M2, time 5 day"}, "[2]": {"details": "64 mg/kg, 72 h, dose level High, time 3 day"}, "[3]": {"details": "64 mg/kg, 120 h, dose level High, time 5 day"}}}
{"smiles": "CC/C(=C(\\c1ccccc1)c1ccc(OCCN(C)C)cc1)c1ccccc1", "note": "[TAMOXIFEN]", "values": [{"measurement": "TOTAL PROTEIN", "setting": "[1]", "result": 6.4, "unit": "G/DL"}, {"measurement": "URIC ACID", "setting": "[1]", "result": 2.17, "unit": "mg/dL"}, {"measurement": "ABSOLUTE BASOPHIL", "setting": "[2]", "result": 0, "unit": "CELLS/uL"}, {"measurement": "ABSOLUTE EOSINOPHIL", "setting": "[2]", "result": 0, "unit": "CELLS/uL"}, {"measurement": "ABSOLUTE LYMPHOCYTE", "setting": "[2]", "result": 5492.33, "unit": "CELLS/uL"}, {"measurement": "ABSOLUTE MONOCYTE", "setting": "[2]", "result": 14, "unit": "CELLS/uL"}, {"measurement": "ABSOLUTE SEGMENTED NEUTROPHIL", "setting": "[2]", "result": 260.33, "unit": "CELLS/uL"}, {"measurement": "BASOPHIL", "setting": "[2]", "result": 0, "unit": "%"}, {"measurement": "EOSINOPHIL", "setting": "[2]", "result": 0, "unit": "%"}, {"measurement": "ERYTHROCYTE COUNT", "setting": "[2]", "result": 5.73, "unit": "x10E6/uL"}, {"measurement": "HEMATOCRIT", "setting": "[2]", "result": 35.43, "unit": "%"}, {"measurement": "HEMOGLOBIN", "setting": "[2]", "result": 13.57, "unit": "G/DL"}, {"measurement": "LEUKOCYTE COUNT", "setting": "[2]", "result": 5.77, "unit": "x10E3/uL"}, {"measurement": "LYMPHOCYTE", "setting": "[2]", "result": 94.67, "unit": "%"}, {"measurement": "MEAN CORPUSCULAR HEMOGLOBIN", "setting": "[2]", "result": 23.73, "unit": "pg"}, {"measurement": "MEAN CORPUSCULAR HEMOGLOBIN CONCENTRATION", "setting": "[2]", "result": 38.3, "unit": "G/DL"}, {"measurement": "MEAN CORPUSCULAR VOLUME", "setting": "[2]", "result": 62.03, "unit": "fL"}, {"measurement": "MONOCYTE", "setting": "[2]", "result": 0.33, "unit": "%"}, {"measurement": "NEUTROPHIL", "setting": "[2]", "result": 5, "unit": "%"}, {"measurement": "NUCLEATED RED BLOOD CELLS", "setting": "[2]", "result": "0 /100WBC"}, {"measurement": "PLATELET COUNT", "setting": "[2]", "result": 879.67, "unit": "x10E3/uL"}, {"measurement": "ALANINE AMINOTRANSFERASE", "setting": "[2]", "result": 151, "unit": "u/L"}, {"measurement": "ALBUMIN", "setting": "[2]", "result": 3.87, "unit": "G/DL"}, {"measurement": "ALKALINE PHOSPHATASE", "setting": "[2]", "result": 492, "unit": "u/L"}, {"measurement": "ASPARTATE AMINOTRANSFERASE", "setting": "[2]", "result": 96.67, "unit": "u/L"}, {"measurement": "BLOOD UREA NITROGEN", "setting": "[2]", "result": 10, "unit": "mg/dL"}, {"measurement": "CARBON DIOXIDE", "setting": "[2]", "result": 30.33, "unit": "mmol/L"}, {"measurement": "CHOLESTEROL", "setting": "[2]", "result": 38.33, "unit": "mg/dL"}, {"measurement": "CREATINE PHOSPHOKINASE", "setting": "[2]", "result": 356.33, "unit": "u/L"}, {"measurement": "CREATININE", "setting": "[2]", "result": 0.11, "unit": "mg/dL"}, {"measurement": "GLUCOSE", "setting": "[2]", "result": 148, "unit": "mg/dL"}, {"measurement": "LACTATE DEHYDROGENASE", "setting": "[2]", "result": 98, "unit": "u/L"}, {"measurement": "LIPASE", "setting": "[2]", "result": 10.67, "unit": "u/L"}, {"measurement": "TOTAL BILIRUBIN", "setting": "[2]", "result": 0.1, "unit": "mg/dL"}, {"measurement": "TOTAL PROTEIN", "setting": "[2]", "result": 5.77, "unit": "G/DL"}, {"measurement": "URIC ACID", "setting": "[2]", "result": 0.43, "unit": "mg/dL"}, {"measurement": "ABSOLUTE BASOPHIL", "setting": "[3]", "result": 0, "unit": "CELLS/uL"}, {"measurement": "ABSOLUTE EOSINOPHIL", "setting": "[3]", "result": 0, "unit": "CELLS/uL"}, {"measurement": "ABSOLUTE LYMPHOCYTE", "setting": "[3]", "result": 6999, "unit": "CELLS/uL"}, {"measurement": "ABSOLUTE MONOCYTE", "setting": "[3]", "result": 72.33, "unit": "CELLS/uL"}, {"measurement": "ABSOLUTE SEGMENTED NEUTROPHIL", "setting": "[3]", "result": 495.33, "unit": "CELLS/uL"}, {"measurement": "BASOPHIL", "setting": "[3]", "result": 0, "unit": "%"}, {"measurement": "EOSINOPHIL", "setting": "[3]", "result": 0, "unit": "%"}, {"measurement": "ERYTHROCYTE COUNT", "setting": "[3]", "result": 6.14, "unit": "x10E6/uL"}, {"measurement": "HEMATOCRIT", "setting": "[3]", "result": 38.5, "unit": "%"}, {"measurement": "HEMOGLOBIN", "setting": "[3]", "result": 14.9, "unit": "G/DL"}, {"measurement": "LEUKOCYTE COUNT", "setting": "[3]", "result": 7.57, "unit": "x10E3/uL"}, {"measurement": "LYMPHOCYTE", "setting": "[3]", "result": 92.33, "unit": "%"}, {"measurement": "MEAN CORPUSCULAR HEMOGLOBIN", "setting": "[3]", "result": 24.27, "unit": "pg"}, {"measurement": "MEAN CORPUSCULAR HEMOGLOBIN CONCENTRATION", "setting": "[3]", "result": 38.7, "unit": "G/DL"}, {"measurement": "MEAN CORPUSCULAR VOLUME", "setting": "[3]", "result": 62.63, "unit": "fL"}, {"measurement": "MONOCYTE", "setting": "[3]", "result": 1, "unit": "%"}, {"measurement": "NEUTROPHIL", "setting": "[3]", "result": 6.67, "unit": "%"}, {"measurement": "NUCLEATED RED BLOOD CELLS", "setting": "[3]", "result": "0.33 /100WBC"}, {"measurement": "PLATELET COUNT", "setting": "[3]", "result": 1000.33, "unit": "x10E3/uL"}, {"measurement": "ALANINE AMINOTRANSFERASE", "setting": "[3]", "result": 226.33, "unit": "u/L"}, {"measurement": "ALBUMIN", "setting": "[3]", "result": 3.63, "unit": "G/DL"}, {"measurement": "ALKALINE PHOSPHATASE", "setting": "[3]", "result": 346.67, "unit": "u/L"}, {"measurement": "ASPARTATE AMINOTRANSFERASE", "setting": "[3]", "result": 140, "unit": "u/L"}, {"measurement": "BLOOD UREA NITROGEN", "setting": "[3]", "result": 7.67, "unit": "mg/dL"}, {"measurement": "CARBON DIOXIDE", "setting": "[3]", "result": 30, "unit": "mmol/L"}, {"measurement": "CHOLESTEROL", "setting": "[3]", "result": 43.33, "unit": "mg/dL"}, {"measurement": "CREATINE PHOSPHOKINASE", "setting": "[3]", "result": 593, "unit": "u/L"}, {"measurement": "CREATININE", "setting": "[3]", "result": 0.12, "unit": "mg/dL"}, {"measurement": "GLUCOSE", "setting": "[3]", "result": 136.33, "unit": "mg/dL"}, {"measurement": "LACTATE DEHYDROGENASE", "setting": "[3]", "result": 145.33, "unit": "u/L"}, {"measurement": "LIPASE", "setting": "[3]", "result": 10.33, "unit": "u/L"}, {"measurement": "TOTAL BILIRUBIN", "setting": "[3]", "result": 0.1, "unit": "mg/dL"}, {"measurement": "TOTAL PROTEIN", "setting": "[3]", "result": 5.3, "unit": "G/DL"}]}
